Test results from patent publication US20060205819A1, “Methods of treatment inflammatory bowel with lxr agonists” (priority 2003, published 2006).
Where two headings read alike, the source gives them in different places. Marks after values point to notes of the source that are not given here.

What was measured:
LXRβ protein = target: T1, LXRβ protein (Homo sapiens, UniProt P55055); assay: LXRβ / SRC-1 peptide fluorescence assay (streptavidin-APC / Europium); assay type: biochemical; details: 1 μM; over a background reading of 10000 fluorescence units
T1 sequence (P55055 1-460): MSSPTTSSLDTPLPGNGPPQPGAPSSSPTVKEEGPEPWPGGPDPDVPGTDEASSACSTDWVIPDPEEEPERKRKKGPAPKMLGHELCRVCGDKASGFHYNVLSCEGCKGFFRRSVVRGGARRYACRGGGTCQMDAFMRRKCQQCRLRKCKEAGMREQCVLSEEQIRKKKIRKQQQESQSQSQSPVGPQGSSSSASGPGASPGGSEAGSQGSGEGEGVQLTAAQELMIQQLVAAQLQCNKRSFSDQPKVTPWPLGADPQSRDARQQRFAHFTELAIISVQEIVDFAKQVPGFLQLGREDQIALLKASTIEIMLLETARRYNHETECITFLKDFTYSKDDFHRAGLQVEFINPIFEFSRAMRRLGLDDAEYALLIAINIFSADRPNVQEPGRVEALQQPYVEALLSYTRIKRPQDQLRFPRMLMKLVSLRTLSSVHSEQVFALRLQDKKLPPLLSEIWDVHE
Protocol: Other LXR agonists may be identified by assays such as those described in the above referenced patent applications, for example, the assays described in Examples 1 and 2 of PCT/US01/27622. Biotinylated LXRβ protein was incubated for 20-25 minutes at a concentration of 25 nM in assay buffer (50 mM KCl, 50 mM Tris-pH8, 0.1 mg/ml FAF-BSA, 10 mM DTT) with equimolar amounts of streptavidin-AlloPhycoCyanin (APC, Molecular Probes). At the same time, the biotinylated peptide comprising amino acids 675-699 of SRC-1 ([…]-CONH2) (SEQ ID NO: 5) at a concentration of 25 nM was incubated in assay buffer with a […] of streptavidin-labelled Europium (Wallac) for 20-25 minutes. After the initial incubations are completed, a 10 molar excess (250 nM) of cold biotin was added to each of the solutions to block the unattached streptavidin reagents. After 20 min at room temp, the solutions were mixed yielding a concentration of 12.5 nM for the dye-labelled LXRβ protein and SRC-1 peptide.
80 μL of the protein/peptide mixture was added to each well of an assay plate containing 20 μL of test compound. […] The plates were incubated at room temp in the dark for 4-12 hours and then counted on a Wallac Victor fluorescent plate reader. In this assay 1 μM 24(S), 25-epoxycholesterol gave a reading of 20000 fluorescence units over a background reading of 10000 fluorescence units. […]

DSS-induced colitis = DSS-induced colitis in mice, disease activity index (DAI) AUC; assay type: in vivo, BALB/c mice; details: for severity of DSS-induced colitis: p.o.; for AUC (0-12 day) / AUC (3-7 day) / AUC (7-10 day) / AUC (10-12 day): DAI curve AUC, 3% DSS mice, mean +/- SE; for inhibition at 3 mg/kg / inhibition at 10 mg/kg / inhibition at 30 mg/kg: Mus musculus, po, vs DSS + vehicle; for inhibition at 3 mg/kg: 3 mg/kg p.o. b.i.d.; for inhibition at 10 mg/kg: 10 mg/kg p.o. b.i.d.; for inhibition at 30 mg/kg: 30 mg/kg p.o. b.i.d.
Protocol: Female, 10-week-old BALB/c mice (Charles River Japan) were used in this study. Colitis was induced by providing drinking water containing 3% dextran sulfate sodium (DSS, ICN Biomedicals Inc., M.W.=36,000-50,000) for 5 days. The administration of DSS was discontinued on day 5, and mice were given tap water alone for 7 days until on day 12.
The disease activity index (DAI) was determined in all animals, by scoring body weight, stool consistency and rectal bleeding as described by Murthy, S. N. S. (Digestive Diseases and Sciences, 38(9) p. 1722-1734(1993)). Severity of colitis was evaluated by area under the curve (AUC) calculated based on DAI curve ranged from day 3 to day 7 (AUC (3-7 day)), from day 7 to day 10 (AUC (7-10 day)), from day 10 to day 12 (AUC (10-12 day)) and from day 0 to day 12 (AUC (0-12 day)).
Ten mice were used in each group. Compound IIa and Compound Ia were suspended in 0.5% methylcellulose (MC) solution. Compound IIa 3 or 10 or 30 mg/kg or its vehicle (0.5% MC solution) was administered orally twice a day for 12 days from day 0. Compound Ia at 50 mg/kg was administered orally once a day for 12 days from day 0. The experimental groups were set up as follows:
• 3% DSS+vehicle (0.5% MC solution) 3% DSS+Compound IIa (3 mg/kg) 3% DSS+Compound IIa (10 mg/kg) 3% DSS+Compound IIa (30 mg/kg) 3% DSS+Compound Ia (50 mg/kg) * Mice which received tap water without DSS.

[1] = read-out: Inhibition (%) of AUC (0-12 day)
[2] = read-out: Inhibition (%) of AUC (3-7 day)
[3] = read-out: Inhibition (%) of AUC (7-10 day)
[4] = read-out: Inhibition (%) of AUC (10-12 day)

`C[C@H](CC[C@@H]1OC1(C)C)[C@H]1CC[C@H]2[C@@H]3CC=C4C[C@@H](O)CC[C@]4(C)[C@H]3CC[C@]12C` [24(S), 25-epoxycholesterol] showed a reading (LXRβ protein) of 20000 fluorescence units.

For `O=C(O)Cc1cccc(OCCCN(Cc2cccc(C(F)(F)F)c2Cl)CC(c2ccccc2)c2ccccc2)c1` [Compound IIa, 2-(3-{3-[[2-Chloro-3-(trifluoromethyl)benzyl](2,2-diphenylethyl)amino]propoxy}-phenyl)acetic acid], the “severity of DSS-induced colitis” value (DSS-induced colitis; 3, 10 and 30 mg/kg, b.i.d., significantly lower AUC compared with vehicle-treated DSS-fed mice) was “suppressed the severity of DSS-induced colitis”, the “AUC (0-12 day)” value (DSS-induced colitis; 3 mg/kg p.o. b.i.d. 12 days) was 14.02 +/− 1.56 and the “AUC (3-7 day)” value (DSS-induced colitis; 3 mg/kg p.o. b.i.d. 12 days) was 4.93 +/− 0.38**. For the same molecule, the “AUC (7-10 day)” value (DSS-induced colitis; 3 mg/kg p.o. b.i.d. 12 days) was 5.05 +/− 0.75, the “AUC (10-12 day)” value (DSS-induced colitis; 3 mg/kg p.o. b.i.d. 12 days) was 2.73 +/− 0.55 and the “AUC (0-12 day)” value (DSS-induced colitis; 10 mg/kg p.o. b.i.d. 12 days) was 11.25 +/− 1.42**. For the same molecule, the “AUC (3-7 day)” value (DSS-induced colitis; 10 mg/kg p.o. b.i.d. 12 days) was 4.60 +/− 0.40**, the “AUC (7-10 day)” value (DSS-induced colitis; 10 mg/kg p.o. b.i.d. 12 days) was 3.70 +/− 0.62* and the “AUC (10-12 day)” value (DSS-induced colitis; 10 mg/kg p.o. b.i.d. 12 days) was 1.70 +/− 0.37. The “AUC (0-12 day)” value (DSS-induced colitis; 30 mg/kg p.o. b.i.d. 12 days) was 11.70 +/− 1.32*, the “AUC (3-7 day)” value (DSS-induced colitis; 30 mg/kg p.o. b.i.d. 12 days) was 4.70 +/− 0.36** and the “AUC (7-10 day)” value (DSS-induced colitis; 30 mg/kg p.o. b.i.d. 12 days) was 3.94 +/− 0.62. For the same molecule, the “AUC (10-12 day)” value (DSS-induced colitis; 30 mg/kg p.o. b.i.d. 12 days) was 1.67 +/− 0.44, the inhibition at 3 mg/kg (DSS-induced colitis; [1]) was 22% and the inhibition at 3 mg/kg (DSS-induced colitis; [2]) was 28.2%. It also gave an inhibition at 3 mg/kg (DSS-induced colitis; [3]) of 20.5%, an inhibition at 3 mg/kg (DSS-induced colitis; [4]) of 14.7% and an inhibition at 10 mg/kg (DSS-induced colitis; [1]) of 37.4%. It also gave an inhibition at 10 mg/kg (DSS-induced colitis; [2]) of 33%, an inhibition at 10 mg/kg (DSS-induced colitis; [3]) of 41.7% and an inhibition at 10 mg/kg (DSS-induced colitis; [4]) of 46.9%. The inhibition at 30 mg/kg (DSS-induced colitis; [1]) was 34.9%, the inhibition at 30 mg/kg (DSS-induced colitis; [2]) was 31.6% and the inhibition at 30 mg/kg (DSS-induced colitis; [3]) was 38%. The inhibition at 30 mg/kg (DSS-induced colitis; [4]) was 47.8%.

With `O=S(=O)(c1ccccc1)N(CC(F)(F)F)c1ccc(C(O)(C(F)(F)F)C(F)(F)F)cc1` [Compound Ia] the “severity of DSS-induced colitis” value (DSS-induced colitis; 50 mg/kg, q.d., significant lower AUC (3-7 day) and AUC (0-12 day) compared with vehicle-treated DSS-fed mice) was “inhibited the severity of DSS-induced colitis”, the “AUC (0-12 day)” value (DSS-induced colitis; 50 mg/kg p.o. q.d. 12 days) was 12.33 +/− 1.40* and the “AUC (3-7 day)” value (DSS-induced colitis; 50 mg/kg p.o. q.d. 12 days) was 4.80 +/− 0.38**. For the same molecule, the “AUC (7-10 day)” value (DSS-induced colitis; 50 mg/kg p.o. q.d. 12 days) was 4.25 +/− 0.72 and the “AUC (10-12 day)” value (DSS-induced colitis; 50 mg/kg p.o. q.d. 12 days) was 1.98 +/− 0.45.
